Test: Human HepG2 cell viability assay in 384 well format
Assay type: toxicity, cell-based
Parameters: dose 125 nL, time 70.5 hour; cytotoxicity at 70.5 h: concentration not given beside the values
Conditions: HepG2 cells, read-out: Inhibition

Row | SMILES | cytotoxicity at 70.5 h
1 | CCN1CCCC(c2c(-c3ccccc3)ncn2CCc2c[nH]cn2)C1 (configuration not stated) | -11.9%
2 | COc1ccc(F)cc1C(=O)N1CCC2(CCC(=O)N(C(C)C)C2)CC1 | -5.66%
3 | COc1ccc(C(=O)NCCCNc2ccc(C(F)(F)F)cn2)cc1 | -17.2%
4 | Cc1ncsc1C(=O)N1CCC(Nc2cccnn2)CC1 | -7.04%
5 | Cc1nc([C@@H]2C[C@@H]3CCN(Cc4cnn(C)c4)C[C@H]3O2)sc1C | -5.41%
6 | Cc1cc(C(=O)N2CCC(c3nccn3CCCN(C)C)CC2)no1 | 0.885%
7 | N#Cc1ccc(CNC(=O)NC2CCN(CC(F)(F)F)C2)cc1 (configuration not stated) | -5.15%
8 | Cc1noc(C)c1CN(C)C(=O)CCOc1ccc(Cl)cc1 | -11.7%
9 | c1cnc(-c2nc(CN3CCCN(Cc4cccs4)CC3)cs2)nc1 | -3.19%
10 | Cc1nc(C)n(CC2CCCN2CC(=O)NCCc2ccccc2)n1 (configuration not stated) | -4.21%
11 | CCc1cnc(NCc2ccccc2Cn2cccn2)nc1 | 0.071%
12 | O=C(Nc1cc(C(F)(F)F)ccc1Cl)c1ccc(N2CCOCC2)nn1 | -0.689%
13 | CN(CCn1ccc2ccccc21)C(=O)Cc1n[nH]c(=O)[nH]1 | 1.76%
14 | COc1ccc(Oc2nccc3occc23)cc1CN1CCCC1 | -6.39%
15 | O=C(CCn1ccc2ccccc21)N1CCC(Nc2cccnn2)CC1 | -3.47%
16 | COc1ccc(-n2cc(CNC(=O)c3ccccn3)nn2)cc1 | -8.76%
17 | CN(Cc1ccco1)C1CCC12CCN(C(=O)c1ccco1)CC2 (configuration not stated) | -0.239%
18 | CN1CC2(COCCN(c3ncccn3)C2)OCC1=O (configuration not stated) | -11.5%
19 | CN1CCCCC1c1ncc2c(n1)CCN(Cc1ccccc1Cl)C2 (configuration not stated) | -7.2%
20 | O=c1[nH]nc2c(S(=O)(=O)N3CCCCCC3)cccn12 | -7.77%
21 | O=C(c1cccn1-c1ccc2c(c1)OCCO2)N1CCCC1 | -11.9%
22 | Cc1nnc(CN2CCCC(c3noc(C4CC4)n3)C2)o1 (configuration not stated) | -4.3%
23 | O=C(CC[C@@H]1CCCN2CCCC[C@H]12)NCCc1cc(O)ncn1 | -11.3%

Row | SMILES | cytotoxicity at 70.5 h
24 | CN(Cc1ccccc1O)CC1CCCN(CCc2ccc(Cl)cc2)C1 (configuration not stated) | -2.45%
25 | CCSc1ncc(CN2CCN(c3ccc(C#N)cc3)C(=O)C2)cn1 | -8.4%
26 | Cc1cnc(C(=O)N2CC[C@@H]3CN(c4ncccn4)CCO[C@@H]3C2)cn1 | -4.8%
27 | N#Cc1cc2c(=O)n(CC(O)Cc3ccccc3)ccc2[nH]c1=O (configuration not stated) | -13.6%
28 | CNC(=O)[C@@H]1C[C@@H](N)CN1c1nnc(-c2ccccc2)s1 | -4.95%
29 | O=S(=O)(CCN1CCN(c2ccccc2O)CC1)c1ccc(Br)cc1 | -8.18%
30 | COCCc1noc(CN2CCc3nn(C(C)C)c(=O)cc3C2)n1 | 32.4%
31 | Cc1cnn(CC2CCCN2CC(=O)Nc2nncs2)c1 (configuration not stated) | -5.64%
32 | Cc1ccc(C(=O)N2CC[C@H]3O[C@@H](c4noc(C)n4)C[C@H]3C2)o1 | -8.48%
33 | CCCc1cc(N2CCCC2Cn2nc(C)cc2C)n2ncnc2n1 (configuration not stated) | -5.55%
34 | CCC(Oc1ccccc1)c1nn2c(CN(CC)CC)nnc2s1 (configuration not stated) | -7.01%
35 | CCNC(=O)N1C[C@@H]2OCC(=O)N(Cc3cccnc3)[C@@H]2C1 | -1.41%
36 | Cc1ccc(-c2nc(CN3CCOC(Cn4cncn4)C3)cs2)o1 (configuration not stated) | -6.85%
37 | COCc1nc(C2CC2)nn1-c1cc(Cl)ccc1OC | -3.71%
38 | N#Cc1cccc(CNc2ccc(F)cc2OCCO)c1 | -6.47%
39 | O=C(CN1CCCC1c1nc(Cc2ccc(F)cc2)no1)NC1CC1 (configuration not stated) | 0.125%
40 | Cc1nc(C2CCCCN2C(=O)c2ccccc2)ncc1C(=O)N(C)C (configuration not stated) | -12%
41 | Cc1nn(C)cc1S(=O)(=O)NCC(C)Cn1cc(Cl)cn1 (configuration not stated) | 3.54%
42 | CNC(=O)C1CCCN1c1nc(C)c2ccccc2n1 (configuration not stated) | -16.3%
43 | CCN1CCc2c(cccc2NC(=O)N(C)C2CCSC2)C1 (configuration not stated) | -10.8%
44 | CCc1[nH]ncc1C(=O)N1CCCN(Cc2nccn2C(C)C)CC1 | 0.199%
45 | O=C(NCc1ccnc(C2CCCOC2)n1)c1cccs1 (configuration not stated) | 14.1%
46 | NC(=O)NC(=O)CCSCc1coc(-c2ccc(F)cc2)n1 | -3.5%

Row | SMILES | cytotoxicity at 70.5 h
47 | CN1CCCC1CNC(=O)CCCOc1ccc(I)cc1 (configuration not stated) | -0.485%
48 | CCn1nnc2c1C(COCC(=O)N(C)C)CN(Cc1ccoc1)C2 (configuration not stated) | -0.882%
49 | Cn1cnnc1SCc1cc2c(cc1Br)OCO2 | -1.06%
50 | Cc1cc(C[C@@H]2COC[C@@H]2NC(=O)CN2CCc3ccccc3C2)on1 | 8.76%
51 | COc1ccc(CNC(=O)N2CCN(CC(O)C3CC3)CC2)cc1 (configuration not stated) | -3%
52 | Cn1c(NCC(O)c2ccc(Cl)cc2)c(C#N)c(=O)n(C)c1=O (configuration not stated) | -4.06%
53 | CSc1ccc(C2CC(=O)Nc3c2c(=O)[nH]c2ncnn32)cc1 (configuration not stated) | 6.12%
54 | COc1ccccc1CCN1CCCC(CN(C)Cc2c[nH]c(C)n2)C1 (configuration not stated) | 14.9%
55 | COc1ccc(-c2ncccc2C(=O)N2C[C@H]3CC[C@@H]2C3)cn1 | -2.51%
56 | CCn1cnnc1CNC(=O)c1cc(F)ccc1OC | -6.76%
57 | COc1ccc(CN2C[C@@H]3CC[C@H](C2)N(S(=O)(=O)C2CC2)C3)cc1 | -5.41%
58 | COCCN1C[C@H]2[C@@H](C1)N(Cc1cnn(C)c1)CC[C@H]2OC | -11.3%
59 | Cc1noc2nc(C3CCN(Cc4ccncc4)CC3)cc(C(F)F)c12 | 31.7%
60 | CC(C)Oc1ccc(C(=O)NCc2ccnc(N3CCCC3)c2)cn1 | -10.1%
61 | COCCNC(=O)c1ccc(NCc2c(C)noc2C)cc1Cl | -6.64%
62 | Cc1cccc(C)c1OCCC(=O)N1CCC(c2nncn2C)CC1 | -21.4%
63 | Cn1cnc2cc(CCC(=O)Nc3n[nH]c(C4CCCO4)n3)ccc21 (configuration not stated) | 1.89%
64 | Cc1ccccc1CN1CC[C@H]2C[C@H](C(=O)N(C)C)O[C@H]2C1 | -12.7%
65 | O=C(NC1(c2nnn(Cc3ccncc3)n2)CCCC1)c1ccccc1 | -1.85%
66 | CC(C)N1CCC(Cc2cncc(-c3ccccc3C(=O)O)n2)CC1 | -17.6%
67 | CN(C)C(=O)CN1CCCC(CCCc2ccccn2)(C(N)=O)C1 (configuration not stated) | 10.1%
68 | Cc1nc(C2CCCN2Cc2nc(C)c(C)o2)no1 (configuration not stated) | -2.71%
69 | c1cnc(N2CCC3(CCCN(CC4CCCCC4)C3)C2)cn1 (configuration not stated) | -11.2%

Row | SMILES | cytotoxicity at 70.5 h
70 | O=C(c1cc(=O)c(OCc2ccccc2F)co1)N1CCSCC1 | -3.38%
71 | CCc1noc(C2CCCCN2C(=O)c2cccs2)n1 (configuration not stated) | -4.33%
72 | O=C(c1cncc(N2CCC(O)(CO)CC2)n1)N1CCCC1 | -9.52%
73 | CC(=O)NC1CCN(C(=O)Nc2ccc(SC(F)F)cc2)CC1 | -4.73%
74 | COc1ccc(-c2cc(CNc3ncnc4c3CCNCC4)no2)cc1 | 23.4%
75 | Cc1cccc(NC(=O)C(C)Oc2ccc3c(c2)OCO3)n1 (configuration not stated) | -3.5%
76 | O=C(O)CC1CN(Cc2ccccc2)CCO1 (configuration not stated) | -0.381%
77 | CSc1nc2ccsc2c(=O)n1CC(=O)NC1CCCCC1 | -6.83%
78 | COC(=O)CN1CCCN(C(=O)CCOc2cccc(C)c2C)CC1 | -5.13%
79 | COc1ccc(Cl)cc1NC(=O)CNc1ccn(CC(N)=O)n1 | 20.1%
80 | Cc1nc(C2CCCN(C(=O)c3sccc3C3CC3)C2)no1 (configuration not stated) | -8.62%
81 | Cc1nccn1CCC1CCN(C2CCC3(CCNCC3)CC2)CC1 | 13.6%
82 | CN(CC1CC1)c1ccc2ccc(C(=O)NC3CCCCC3)cn12 | 12.9%
83 | COc1cccc(C2SCC(=O)Nc3ccsc32)c1 (configuration not stated) | 0.777%
84 | Cc1cn2c(n1)CCC(NC(=O)CCn1cncn1)C2 (configuration not stated) | -8.43%
85 | CCNC(=O)[C@@H]1C[C@H](NC(=O)c2cc(CC)n[nH]2)CN1Cc1ccsc1 | -6.78%
86 | Cn1nc(C2CCCN(Cc3cccc(F)c3)C2)c2nccnc21 (configuration not stated) | -4.33%
87 | COc1c(C2CCCN2c2ncnc3sccc23)c(C)nn1C (configuration not stated) | -2.24%
88 | CCc1nc(C)c(C(=O)N2CCNCC2C(=O)NCc2ccncc2)o1 (configuration not stated) | -5.31%
89 | CCOc1ncccc1NC(=O)N1CCCN(C(=O)OC)CC1 | -0.675%
90 | CC1(c2ncc(CN(CC(=O)O)Cc3ccccc3)cn2)CCCCO1 (configuration not stated) | -7.96%
91 | CN1CCN(C(=O)CCCc2ccccc2)CC(O)(Cn2cccn2)C1 (configuration not stated) | -2.15%
92 | C=C(C)CN1CCN(Cc2cnc(OC)nc2)CC1 | 6.5%

Row | SMILES | cytotoxicity at 70.5 h
93 | Cc1cc(C)n(-c2cncc(NCCNC(=O)C3CCCC3)n2)n1 | -9.3%
94 | CN(C)Cc1cccc(-c2cccnc2C(=O)NCC2CC2)c1 | -2.77%
95 | Cc1ccc(C(=O)NC2CCCN(CC(N)=O)C2)c(=O)[nH]1 (configuration not stated) | -7.85%
96 | CN(C)C(=O)C1CCN(C2CCN(CC3CC3)CC2)CC1 | -5.51%
97 | O=c1c(NCCNCCO)c(N2CCN(c3ccccc3)CC2)c1=O | -6.86%
98 | Cc1cc(N(Cc2ccccc2F)C2CC2)n2nc(C(F)(F)F)nc2n1 | -1.77%
99 | O=C1COC2(CCN(Cc3ccc(F)cc3)CC2)CN1 | 3.53%
100 | CN(Cc1cc(-c2ccccc2)no1)C1CCCN(c2cccnn2)C1 (configuration not stated) | -13.5%
101 | Cc1csc(N2CCN(Cc3nnsc3Cl)CC2C)n1 (configuration not stated) | -16%
102 | CCn1ccnc1CN1CCN(Cc2cccnc2)CC1C (configuration not stated) | 7.86%
103 | Cc1ccc(-c2nc3cc(S(=O)(=O)N4CCCC4)ccc3n2C)o1 | -11.7%
104 | CCc1c(O)nc(SCC(=O)c2ccccc2)n(-c2ccccc2)c1=O | -2.09%
105 | NC(=O)c1cccnc1N1CCN(c2ncnc3c2CCNC3)CC1 | -1.91%
106 | O[C@@H]1C[C@@H](c2nc(Cc3ccccc3)no2)N(Cc2ncc[nH]2)C1 | 9.72%
107 | CCOc1ccc(Cl)c(C(=O)N2CCN(CC(O)CC)CC2)n1 (configuration not stated) | -14%
108 | Cc1c[nH]c(C2CN(Cc3ccccc3C(=O)O)CCO2)n1 (configuration not stated) | -1.83%
109 | CN(Cc1ncc(C(C)(C)C)o1)C1CCCN(c2cccnn2)C1 (configuration not stated) | -11.9%
110 | Cc1nn(-c2ccccc2)c2nc(C(C)(C)CN3CCN(C)CC3)[nH]c12 | -1.61%
111 | COC(C(=O)N1CCN(c2cccc(Cl)c2)C(=O)C1)c1ccccc1 (configuration not stated) | -7.64%
112 | O=C1CCN(C(=O)c2csc(-c3ccc(C(F)(F)F)cc3)n2)CCN1 | -8.28%

Source: ChEMBL document CHEMBL3507680, “University of Dundee, Gates Library screen for HepG2 cell viability”
